Laboratory results: patent EP2121694B1, “CYCLOPROPYL FUSED INDOLOBENZAZEPINE HCV NS5B INHIBITORS” (Bristol-Myers Squibb Company, priority 2007, dated 2008)
Read-outs that look alike come from different tables or passages of the source.

Tests used:
HCV NS5B = molecular target: T1, HCV NS5B (Hepatitis C virus genotype 1b, UniProt Q9WMX2); experiment: Modified HCV NS5B RdRp enzyme assay (preincubation protocol); format: biochemical; settings: HCV NS5B RdRp genotype 1b
T1 construct: The protein was expressed with an 18 amino acid C-terminal truncation to enhance the solubility; made in house; host or cells: E. coli BL21(DE3), pET21a vector
Description: HCV NS5B RdRp cloning, expression, and purification. The cDNA encoding the NS5B protein of HCV, genotype 1b, was cloned into the pET21a expression vector. The protein was expressed with an 18 amino acid C-terminal truncation to enhance the solubility. The E. coli competent cell line BL21(DE3) was used for expression of the protein. Cultures were grown at 37 °C for ∼ 4 hours until the cultures reached an optical density of 2.0 at 600 nm. The cultures were cooled to 20 °C and induced with 1 mM IPTG. Fresh ampicillin was added to a final concentration of 50 µg/ml and the cells were grown overnight at 20 °C.
Cell pellets (3L) were lysed for purification to yield 15-24 mgs of purified NS5B. The lysis buffer consisted of 20 mM Tris-HCl, pH 7.4, 500 mM NaCl, 0.5% triton X-100, 1 mM DTT, 1mM EDTA, 20% glycerol, 0.5 mg/ml lysozyme, 10 mM MgCl2, 15 ug/ml deoxyribonuclease I, and Complete TM protease inhibitor tablets (Roche). After addition of the lysis buffer, frozen cell pellets were resuspended using a tissue homogenizer. To reduce the viscosity of the sample, aliquots of the lysate were sonicated on ice using a microtip attached to a Branson sonicator. The sonicated lysate was centrifuged at 100,000 x g for 1hr at 4 °C and filtered through a 0.2 µm filter unit (Corning).
The protein was purified using three sequential chromatography steps: Heparin sepharose CL-6B, polyU sepharose 4B, and Hitrap SP sepharose (Pharmacia). The chromatography buffers were identical to the lysis buffer but contained no lysozyme, deoxyribonuclease I, MgCl2 or protease inhibitor and the NaCl concentration of the buffer was adjusted according to the requirements for charging the protein onto the column. Each column was eluted with a NaCl gradient which varied in length from 5-50 column volumes depending on the column type. After the final chromatography step, the resulting purity of the enzyme is >90% based on SDS-PAGE analysis. The enzyme was aliquoted and stored at -80 °C.
Standard HCV NS5B RdRp enzyme assay. HCV RdRp genotype 1b assays were run in a final volume of 60 µl in 96 well plates (Costar 3912). The assay buffer is composed of 20 mM Hepes, pH 7.5, 2.5 mM KCl, 2.5 mM MgCl2, 1 mM DTT, 1.6 U RNAse inhibitor (Promega N2515), 0.1 mg/ml BSA (Promega R3961), and 2 % glycerol. All compounds were serially diluted (3-fold) in DMSO and diluted further in water such that the final concentration of DMSO in the assay was 2%. HCV RdRp genotype 1b enzyme was used at a final concentration of 28 nM. A polyA template was used at 6 nM, and a biotinylated oligo-dT12 primer was used at 180 nM final concentration. Template was obtained commercially (Amersham 27-4110). Biotinylated primer was prepared by Sigma Genosys. 3H-UTP was used at 0.6 µCi (0.29 µM total UTP). Reactions were initiated by the addition of enzyme, incubated at 30 °C for 60 min, and stopped by adding 25 µl of 50 mM EDTA containing SPA beads (4 µg/µl, Amersham RPNQ 0007). Plates were read on a Packard Top Count NXT after >1hr incubation at room temperature.
Modified HCV NS5B RdRp enzyme assay. A modified enzyme assay was performed essentially as described for the standard enzyme assay except for the following: The biotinylated oligo dT12 primer was precaptured on streptavidin-coated SPA beads by mixing primer and beads in assay buffer and incubating at room temperature for one hour. Unbound primer was removed after centrifugation. The primer-bound beads were resuspended in 20 mM Hepes buffer, pH 7.5 and used in the assay at final concentrations of 20 nM primer and 0.67 µg/µl beads. Order of addition in the assay: enzyme (14 nM) was added to diluted compound followed by the addition of a mixture of template (0.2 nM) , 3H-UTP (0.6 µCi, 0.29 µM), and primer-bound beads, to initiate the reaction; concentrations given are final. Reactions were allowed to proceed for 4 hours at 30° C.
IC50 values for compounds were determined using seven different [I]. […]

HCV replicon = experiment: HCV FRET screening assay in HCV replicon cells; format: cell-based; settings: Hepatitis C virus
Description: FRET Assay Preparation. To perform the HCV FRET screening assay, 96-well cell culture plates were used. The FRET peptide (Anaspec, Inc.) (Taliani et al., Anal. Biochem. 1996, 240, 60-67) contains a fluorescence donor, EDANS, near one end of the peptide and an acceptor, DABCYL, near the other end. The fluorescence of the peptide is quenched by […] resonance energy transfer (RET) between the donor and the acceptor, but as the NS3 protease cleaves the peptide the products are released from RET quenching and the fluorescence of the donor becomes apparent. The assay reagent was made as follows: 5X cell Luciferase cell culture lysis reagent from Promega (#E153A) diluted to 1X with dH2O, NaCl added to 150 mM final, the FRET peptide diluted to 20 uM final from a 2 mM stock.
To prepare plates, HCV replicon cells, with or without a Renilla luciferase reporter gene, were trypsinized and placed into each well of a 96-well plate with titrated test compounds added in columns 3 through 12; columns 1 and 2 contained a control compound (HCV protease inhibitor), and the bottom row contained cells without compound. The plates were then placed in a CO2 incubator at 37 °C.
Assays. Subsequent to addition of the test compounds described above (FRET Assay Preparation), at various times the plate was removed and Alamar blue solution (Trek Diagnostics, #00-100) was added per well as a measure of cellular toxicity. After reading in a Cytoflour 4000 instrument (PE Biosystems), plates were rinsed with PBS and then used for FRET assay by the addition of 30 ul of the FRET peptide assay reagent described above (FRET Assay Preparation) per well. The plate was then placed into the Cytoflour 4000 instrument which had been set to 340 excite/490 emission, automatic mode for 20 cycles and the plate read in a kinetic mode. Typically, the signal to noise using an endpoint analysis after the reads was at least three-fold. Alternatively, after Alamar blue reading, plates were rinsed with PBS, 50 ul of DMEM (high glucose) without phenol red was added and plates were then used for luciferase assay using the Promega Dual-Glo Luciferase Assay System.
Compound analysis was determined by quantification of the relative HCV replicon inhibition and the relative cytotoxicity values. To calculate cytoxicity values, the average Alamar Blue fluorescence signals from the control wells were set as 100% non-toxic. The individual signals in each of the compound test wells were then divided by the average control signal and multiplied by 100% to determine […]. To calculate the HCV replicon inhibition values, an average background value was obtained from the two wells containing the highest amount of HCV protease inhibitor at the end of the assay period. These numbers were similar to those obtained from naïve Huh-7 cells.
The background numbers were then subtracted from the average signal obtained from the control wells and this number was used as 100% activity. The individual signals in each of the compound test wells were then divided by the averaged control values after background subtraction and multiplied by 100% to determine percent activity. EC50 values for a protease inhibitor titration were calculated as the concentration which caused a 50% reduction in FRET or luciferase activity. The two numbers generated for the compound plate, percent cytoxicity and percent activity were used to determine compounds of interest for further analysis.

[1] = HCV replicon cells, FRET assay, read-out: EC50

T1 sequence (Q9WMX2 2420-2992): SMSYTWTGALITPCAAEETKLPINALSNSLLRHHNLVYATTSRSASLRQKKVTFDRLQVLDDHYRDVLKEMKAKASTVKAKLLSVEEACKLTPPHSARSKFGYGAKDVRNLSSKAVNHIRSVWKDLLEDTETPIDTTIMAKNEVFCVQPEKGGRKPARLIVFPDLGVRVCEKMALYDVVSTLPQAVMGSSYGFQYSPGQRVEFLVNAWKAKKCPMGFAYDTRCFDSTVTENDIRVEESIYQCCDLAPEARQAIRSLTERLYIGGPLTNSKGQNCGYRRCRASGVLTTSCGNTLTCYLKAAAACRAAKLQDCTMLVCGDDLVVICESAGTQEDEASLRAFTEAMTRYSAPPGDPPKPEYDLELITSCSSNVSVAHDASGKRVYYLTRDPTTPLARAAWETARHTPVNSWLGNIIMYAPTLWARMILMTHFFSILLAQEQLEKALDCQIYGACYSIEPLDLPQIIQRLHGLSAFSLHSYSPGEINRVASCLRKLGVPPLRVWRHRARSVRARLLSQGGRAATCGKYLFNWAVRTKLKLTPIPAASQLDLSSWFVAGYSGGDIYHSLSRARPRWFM

Structure (SMILES)	IC50 (HCV NS5B)	EC50 (HCV replicon)	EC50 (HCV replicon; [1])
COc1ccc2c(c1)[C@@H]1C[C@]1(C(=O)O)Cn1c-2c(C2CCCCC2)c2ccc(C(=O)NS(=O)(=O)N(C)C)cc21	97 to 1000 nM	1000 to 10000 nM	
COc1ccc2c(c1)[C@H]1C[C@@]1(C(=O)O)Cn1c-2c(C2CCCCC2)c2ccc(C(=O)NS(=O)(=O)N(C)C)cc21	97 to 1000 nM	1000 to 10000 nM	
COc1ccc2c(c1)C1CC1(C(=O)N1CCOC[C@H]1CO)Cn1c-2c(C2CCCCC2)c2ccc(C(=O)NS(=O)(=O)N(C)C)cc21 (stereo partly drawn)	97 to 1000 nM		97 to 1000 nM
COc1ccc2c(c1)C1CC1(C(=O)N1CC[C@H](N(C)C)C1)Cn1c-2c(C2CCCCC2)c2ccc(C(=O)NS(=O)(=O)N(C)C)cc21 (stereo partly drawn)	97 to 1000 nM		97 to 1000 nM
CCN(CC)CCN(CCN(CC)CC)C(=O)C12CC1c1cc(OC)ccc1-c1c(C3CCCCC3)c3ccc(C(=O)NS(=O)(=O)N(C)C)cc3n1C2 (stereo not drawn)	97 to 1000 nM		97 to 1000 nM
COc1ccc2c(c1)C1CC1(C(=O)N1CCOC[C@H]1C)Cn1c-2c(C2CCCCC2)c2ccc(C(=O)NS(=O)(=O)N(C)C)cc21 (stereo partly drawn)	97 to 1000 nM		97 to 1000 nM
COc1ccc2c(c1)C1CC1(C(=O)N1CCC(F)(F)CC1)Cn1c-2c(C2CCCCC2)c2ccc(C(=O)NS(=O)(=O)N(C)C)cc21 (stereo not drawn)	97 to 1000 nM		97 to 1000 nM
COC(=O)c1ccc2c(C3CCCCC3)c3n(c2c1)CC1(C(=O)OC)CC1c1c(OC(F)(F)F)cccc1-3 (stereo not drawn)	> 10000 nM		> 120 nM
COc1ccc2c(c1)C1CC1(C(=O)N1CCOC[C@H]1CN)Cn1c-2c(C2CCCCC2)c2ccc(C(=O)NS(=O)(=O)N(C)C)cc21 (stereo partly drawn)	97 to 1000 nM		97 to 1000 nM
COC(=O)c1ccc2c(C3CCCCC3)c3n(c2c1)CC1(C(=O)O)CC1c1c(OC(F)(F)F)cccc1-3 (stereo not drawn)	1000 to 10000 nM		
COc1ccc2c(c1)C1CC1(C(=O)N1CCC(C)(O)CC1)Cn1c-2c(C2CCCCC2)c2ccc(C(=O)NS(=O)(=O)N(C)C)cc21 (stereo not drawn)	97 to 1000 nM		97 to 1000 nM
COc1ccc2c(c1)C1CC1(C(=O)N1CCCNCC1)Cn1c-2c(C2CCCCC2)c2ccc(C(=O)NS(=O)(=O)N(C)C)cc21 (stereo not drawn)	97 to 1000 nM		97 to 1000 nM
COC(=O)c1ccc2c(C3CCCCC3)c3n(c2c1)CC1(C(=O)N2CC(C)OC(C)C2)CC1c1c(OC(F)(F)F)cccc1-3 (stereo not drawn)	1000 to 10000 nM		
C[C@@H]1CN(C(=O)C23CC2c2c(OC(F)(F)F)cccc2-c2c(C4CCCCC4)c4ccc(C(=O)O)cc4n2C3)C[C@H](C)O1 (stereo partly drawn)	97 to 1000 nM		97 to 1000 nM
C[C@@H]1CN(C(=O)C23CC2c2c(OC(F)(F)F)cccc2-c2c(C4CCCCC4)c4ccc(C(=O)NS(=O)(=O)N(C)C)cc4n2C3)C[C@H](C)O1 (stereo partly drawn)	97 to 1000 nM		97 to 1000 nM
CCN(CC)CCN1CCCN(C(=O)C23CC2c2cc(OC)ccc2-c2c(C4CCCCC4)c4ccc(C(=O)NS(=O)(=O)N(C)C)cc4n2C3)CC1 (stereo not drawn)	97 to 1000 nM		97 to 1000 nM
COC(=O)C12CC1c1cc(OC)ccc1-c1c(C3CCCCC3)c3ccc(C(=O)NS(=O)(=O)C(C)C)cc3n1C2 (stereo not drawn)	97 to 1000 nM		
COc1ccc2c(c1)C1CC1(C(=O)O)Cn1c-2c(C2CCCCC2)c2ccc(C(=O)NS(=O)(=O)C3CC3)cc21 (stereo not drawn)	97 to 1000 nM		
COc1ccc2c(c1)C1CC1(C(=O)O)Cn1c-2c(C2CCCCC2)c2ccc(C(=O)NS(=O)(=O)C(C)C)cc21 (stereo not drawn)	97 to 1000 nM		
COC(=O)C12CC1c1cc(OC)ccc1-c1c(C3CCCCC3)c3ccc(C(=O)NS(N)(=O)=O)cc3n1C2 (stereo not drawn)	97 to 1000 nM		
COc1ccc2c(c1)C1CC1(C(=O)O)Cn1c-2c(C2CCCCC2)c2ccc(C(=O)NS(N)(=O)=O)cc21 (stereo not drawn)	97 to 1000 nM		
COc1ccc2c(c1)C1CC1(C(=O)O)Cn1c-2c(C2CCCCC2)c2ccc(C(=O)OC(C)(C)C)cc21 (stereo not drawn)	1000 to 10000 nM		
COc1ccc2c(c1)C1CC1(C(=O)N1CCC(C)(O)CC1)Cn1c-2c(C2CCCCC2)c2ccc(C(=O)NS(=O)(=O)C3CC3)cc21 (stereo not drawn)	97 to 1000 nM		
COc1ccc2c(c1)C1CC1(C(=O)N1CCCN(C)CC1)Cn1c-2c(C2CCCCC2)c2ccc(C(=O)NS(=O)(=O)N3CCC3)cc21 (stereo not drawn)	97 to 1000 nM		
CCC(CC)N1CCN(C(=O)C23CC2c2cc(OC)ccc2-c2c(C4CCCCC4)c4ccc(C(=O)NS(=O)(=O)N(C)C)cc4n2C3)CC1 (stereo not drawn) [drawing 37]	97 to 1000 nM		
CCC(CC)N1CCN(C(=O)C23CC2c2cc(OC)ccc2-c2c(C4CCCCC4)c4ccc(C(=O)NS(=O)(=O)N(C)C)cc4n2C3)CC1 (stereo not drawn) [drawing 39]	97 to 1000 nM		
COc1ccc2c(c1)C1CC1(C(=O)N1CCCCC1CN(C)C)Cn1c-2c(C2CCCCC2)c2ccc(C(=O)NS(=O)(=O)N(C)C)cc21 (stereo not drawn) [drawing 50]	97 to 1000 nM		
COc1ccc2c(c1)C1CC1(C(=O)N1CCCN(C)CC1)Cn1c-2c(C2CCCCC2)c2ccc(C(=O)NS(=O)(=O)N(C)C)cc21 (stereo not drawn) [drawing 65]	97 to 1000 nM		
